# Key:
# HLECs [1] = assay: HLEC lymphangiogenesis (tube formation, migration, wound healing, sprouting); format: cell-based, human; conditions: for HLEC lymphangiogenesis in the presence of S1P, shS1pr1, shDll4 or DAPT: LTB4-impaired or S1P-treated HLEC cultures
# Method: Tube formation assay. Matrigel (BD Matrigel Basement Membrane Matrix Growth Factor Reduced, Phenol Red Free) was thawed on ice overnight, dispersed into 48-well plates (100 μl per well) and allowed to polymerize for 30 minutes at 37° C. Serum starved HLECs were seeded on the Matrigel at a density of 1×10^4 cells per well. Images of four representative fields were taken 10 hrs later. ImageJ software was used to determine total cellular cord length. Migration assay. Cellular migration was evaluated using a modified Boyden chamber assay. Briefly, 2×10^4 serum-starved HLECs in 250 μl serum free medium were seeded in the upper chamber of the trans-well. 750 μl of serum free ECM containing various drugs was placed in the lower chamber. Ten hours later, migrated cells were stained with a modified Giemsa solution (Sigma-Aldrich) for quantification. Wound healing assay. 6×10^5 HLECs were seeded on an Easy Slide (Millipore) the day before the experiment and allowed to form a fully confluent monolayer, and then cells were serum starved for 12 hrs. A 200 μl pipet tip was used to scratch a straight line across the middle of the cell monolayer. Cell debris was removed through PBS washing. Images were taken immediately after the scratch and the same windows were imaged again 12 hrs later. The rate of cell migration was calculated as the average percent wound closure from at least 5 independent experiments using ImageJ software. Fibrin gel sprouting assay. HLECs were first coated overnight onto the Cytodex-3 beads with an approximate concentration of 400 cells per bead. On the following day, the microbeads were transferred to 2.0 mg/ml fibrinogen solution containing 0.15 units/ml of aprotinin. Later, 0.625 units/ml thrombin was added to the mixture to gelatinize the fibrin gel. Endothelial sprouts (vessel outgrowth) were observed within 3 days of culture using phase micrographic images and quantified as number of vessels per bead.
# VEGFR3, Vegfc, Vegfd = assay: lymphangiogenic factor levels in HLECs (qRT-PCR, Western blot); format: cell-based, human; conditions: 400 nM LTB4, 100 ng/ml S1P, 25 μM DAPT
# Method: (§1) Western Blot HLECs were lysed with RIPA buffer containing protease and phosphatase inhibitors. Lysates were sonicated briefly and centrifuged. The supernatant was collected and protein concentration was determined by BCA assay. 60 µg of protein were resolved on a 10% SDS-PAGE gel, transferred to a nitrocellulose membrane, blocked with 5% milk and probed with one of the following antibodies: anti-Sphk1 (3297,Cell Signaling); antip-Sphk1(SP1641, ECM Biosciences); anti-NICD (ab8925,Abcam), anti-VEGFR3 (AF743,R&D); anti-DLL4 (ab7280, Abcam). Actin was used to normalize the total protein. Immunofluorescence Immunofluorescence staining was performed using the following primary antibodies: anti-5-LO (3289, Cell Signaling); anti-MPO (ab45977, Abcam); Anti-CD68 (ab22506, Abcam); anti-Prox1(ab101851, Abcam); anti-NICD (ab8925, Abcam), anti-EphrinB2 (AF496,R&D); anti-VEGFR3 (AF743,R&D); anti-Hey1(ab22614, Abcam); Alexa-Fluor-555 Phalloidin (8953,Cell Signaling); anti-DIG(11093274910, Sigma-Aldrich). Negative controls with isotype IgG were run in parallel. Images were acquired by Zeiss 710 confocal microscopy and analyzed using ImageJ software.
# Quantitative RT-PCR. Quantitative PCR (qRT-PCR) was performed using FastStart SYBR Green (Roche) on a Lightcycler 480. mRNA expression relative to GAPDH mRNA levels were calculated using the delta-delta threshold cycle (ΔΔCT) method. PCR microarrays were purchased from Qiagen: RT2 Profiler PCR Array 384-Well Format, Mouse Angiogenesis PAMM-024ZA) and VEGF Signaling (330231 PAMM-091ZA). […]
# [2] = system: acquired lymphedema surgically induced in the tails of female C57BL/6J mice; assay: mouse-tail model of acquired lymphedema (tail volume, histology); format: in vivo; conditions: for amelioration of lymphedema (serial tail-volume measurements over 24d): therapies started on post-surgery d3 (late LTB4 antagonism)
# Method: Surgical induction of experimental lymphatic vascular insufficiency. […] Briefly, a full-thickness circumferential incision of the skin was made 16 mm distal to the base of the mouse tail under anesthesia. Lymphatic trunks were ablated through controlled, limited cautery application under the surgical microscope. For surgical controls (sham animals), the skin incision alone was performed without lymphatic cautery.
# (§2) All small molecule drugs were administered through daily intraperitoneal injection.
# Tail volume quantitation. Tail-volume measurements at each designated time were quantified by observers blinded to the treatment status of the subjects. Tail volumes were calculated through a digital photographic technique pre-operatively, and post-operatively (d3, d9, d14, d20, and d24), using an Olympus D520 Zoom digital camera at SHQ resolution at a fixed distance from the subject (37 cm), as previously described. Tail volumes were derived from the measurement of the tail diameter using the truncated cone approximation. Microlymphangiography was performed by injecting FITC-dextran (size: 2000 kDa) subcutaneously into mouse tails on post-surgery d24. Images were taken 20 minutes after injection.
# Viral particles were mixed with Lipofectamine 2,000 (5% final vol/vol, Invitrogen) before injection, to increase transduction efficiency. qRT-PCR, immunofluorescence and fluorescence in situ hybridization were used to evaluate the silencing efficiency in the mouse tail skin 24d after surgery.
# HLECs [3] = assay: tube formation assay on Matrigel; format: cell-based, human; conditions: 400 nM LTB4; 10 μM U75302+LTB4
# Method: Tube formation assay. Matrigel (BD Matrigel Basement Membrane Matrix Growth Factor Reduced, Phenol Red Free) was thawed on ice overnight, dispersed into 48-well plates (100 μl per well) and allowed to polymerize for 30 minutes at 37° C. Serum starved HLECs were seeded on the Matrigel at a density of 1×10^4 cells per well. Images of four representative fields were taken 10 hrs later. […]
# p-Sphk1 = assay: Western blot of p-SphK1 in HLECs; format: cell-based, human; conditions: exogenous LTB4 (400 nM)
# Method: as §1
# HLECs [4] = assay: LTB4-mediated HLEC apoptosis; format: cell-based, human
# HLECs [5] = assay: trans-well migration assay; format: cell-based, human; conditions: 400 nM LTB4
# Method: Migration assay. Cellular migration was evaluated using a modified Boyden chamber assay. Briefly, 2×10^4 serum-starved HLECs in 250 μl serum free medium were seeded in the upper chamber of the trans-well. 750 μl of serum free ECM containing various drugs was placed in the lower chamber. Ten hours later, migrated cells were stained with a modified Giemsa solution (Sigma-Aldrich) for quantification.
# HLECs [6] = assay: fibrin gel sprouting assay; format: cell-based, human; conditions: 400 nM LTB4
# Method: Fibrin gel sprouting assay. HLECs were first coated overnight onto the Cytodex-3 beads with an approximate concentration of 400 cells per bead. On the following day, the microbeads were transferred to 2.0 mg/ml fibrinogen solution containing 0.15 units/ml of aprotinin. Later, 0.625 units/ml thrombin was added to the mixture to gelatinize the fibrin gel. Endothelial sprouts (vessel outgrowth) were observed within 3 days of culture using phase micrographic images and quantified as number of vessels per bead.
# HLECs [7] = assay: NICD and filopodia histology of HLECs; format: cell-based, human
# Method: as §1
# [8] = system: lymphatic vessel formation; assay: Matrigel plug assay (LYVE1, VEGFR3 staining); format: in vivo, mouse; conditions: Matrigel plugs in SCID mice
# Method: Matrigel plug assay. SCID mice (NOD.Cg-Prkdcscid I/2rgtmlWjl/SzJ, The Jackson Laboratory) of 4-6 weeks of age were used for Matrigel plug injection. Two 250 μl Matrigel plugs were subcutaneously injected into the dorsal surface of the mice. Plugs were recovered with the adjacent subcutaneous tissue 14d later. Tissue was then embedded in paraffin and sectioned for staining.
# [9] = system: Notch transcriptional activity; assay: CSL luciferase reporter assay in HLECs; format: cell-based, human
# Method: pG13-6-CSL luciferase assay. CSL reporter activity was determined as described previously. HLECs (5.0×105) were […] and transfected with both 1 μg CSL luciferase reporter ([…]) and 10 ng Renilla luciferase pRL-SV40 (Promega) using Nucleofactor (Lonza). Luciferase and Renilla activity were then determined with Dual-Luciferase® Reporter Assay System (Promega) and Berthold dual-injection illuminometer.
# Notch (NICD, DLL4) = assay: Western blot of NICD and DLL4 in HLECs; format: cell-based, human
# Method: as §1
# LTB4 = assay: serum LTB4 levels in lymphedema mice; format: in vivo, mouse; conditions: therapies initiated on d3, assessed on d24
# Method: as §2
# Quantification of LTB4, PGE2 and S1P with LC-MS/MS. Briefly, LTB4, PGE2 and S1P were separated from serum with an ACE reverse phase C18 HPLC column. Formic acid 0.5% in 5 mM NH4Ac (A) and formic acid 0.5% in acetonitrile/water (9/1) (B) were used as the mobile phase. […] The internal standard of this method was Carbutamide. The quantification limit was 1 ng/ml. The calibration range was 1-2000 ng/ml.
smiles,measurement,setting,value
C[C@H](NC(=O)Cc1cc(F)cc(F)c1)C(=O)N[C@H](C(=O)OC(C)(C)C)c1ccccc1 [DAPT],"HLEC lymphangiogenesis in the presence of S1P, shS1pr1, shDll4 or DAPT",HLECs [1],did not abrogate lymphangiogenesis entirely
same,"VEGFR3 expression and Vegfc, Vegfd transcription","VEGFR3, Vegfc, Vegfd",inhibited
same,effect of adding DAPT to bestatin-therapy in lymphedema,[2]; DAPT 30 mg/kg added to bestatin 4 mg/kg,abrogated the therapeutic benefit of bestatin
"CCCCC/C=C\C[C@@H](O)/C=C/C=C/C=C\[C@@H](O)CCCC(=O)O [LTB4, leukotriene B4]",tube formation (tube area),HLECs [3],decreased tube area
same,p-Sphk1 in HLECs,p-Sphk1,diminished p-Sphk1
same,LEC apoptosis,HLECs [4],induced LEC apoptosis in a concentration-dependent manner
same,HLEC migration,HLECs [5],inhibited HLEC migration
same,sprout formation in 3D-fibrin-gel assay,HLECs [6],preventing them from forming sprouts
same,"filopodia, nuclear-localized NICD and EphrinB2, cell shape",HLECs [7],increased filopodia and less nuclear-localized NICD and EphrinB2
same,VEGFR3 expression of HLECs in vivo,[8],inhibited the VEGFR3 expression
same,lymphatic vessel formation in vivo,[8]; recovered 14d later,attenuated lymphatic vessel formation
same,"Notch transcriptional activity (CSL reporter), in words",[9]; LTB4 100-800 nm for 24 h,inhibited Notch transcriptional activity in a dose dependent fashion
same,reduction of reporter activity,[9]; physiologic (400 nM) levels of LTB4,> 50%
same,cleaved Notch (NICD) and DLL4 levels,"Notch (NICD, DLL4)",decreased
same,concentration dependence of lymphangiogenesis block,"HLECs [1]; 100 nm, 200 nm, 400 nm or 800 nm LTB4",blocked lymphangiogenesis in a concentration-dependent manner
same,"VEGFR3 expression and Vegfc, Vegfd transcription","VEGFR3, Vegfc, Vegfd",reduced
"CCCc1c(OCCCOc2cc(O)c(-c3ccc(F)cc3)cc2CC)cccc1Oc1ccccc1C(=O)O [Ly293111, 2-[2-propyl-3-[3-[2-ethyl-4-(4-fluorophenyl)-5-hydroxyphenoxy]-propoxy]phenoxy]benzoic acid]",benefit of LTB4 antagonism administered prior to surgery,"[2]; therapies administered prior to sham and lymphedema surgery (bestatin, Ly293111 from d0, shLtb4r1 on d(−7))",not beneficial
same,amelioration of lymphedema (serial tail-volume measurements over 24d),[2],demonstrated therapeutic amelioration of lymphedema
"CCCCCCCCCCCCC/C=C/[C@@H](O)[C@@H](N)COP(=O)(O)O [S1P, sphingosine-1-phosphate]","filopodia, nuclear-localized NICD and EphrinB2, cell shape",HLECs [7],unified stalk-cell shape and enhanced nuclear localization
same,increase of reporter activity from base line,[9]; S1P,3 fold
same,cleaved Notch (NICD) and DLL4 levels,"Notch (NICD, DLL4)",increased levels
same,"HLEC lymphangiogenesis in the presence of S1P, shS1pr1, shDll4 or DAPT",HLECs [1],"restored the abnormal HLEC migration, differentiation, sprouting, and vessel formation caused by LTB4"
same,"VEGFR3 expression and Vegfc, Vegfd transcription","VEGFR3, Vegfc, Vegfd",increased the expression of these factors
CCCCC/C=C\C[C@@H](O)/C=C/c1cccc(C[C@@H](O)CCCCO)n1 [U75302],tube formation (tube area),HLECs [3],normalized tube formation
CC(C)Cc1ccc(C(C)C(=O)O)cc1 (centres unmarked) [ibuprofen],tail swelling,[2]; therapies initiated on d3,not
same,"tail histology (edema, epidermal/dermal junction)",[2]; treatment from d3,"unresolved edema, irregular epidermal/dermal junction"
CC(C(=O)O)c1cccc(C(=O)c2ccccc2)c1 (centres unmarked) [ketoprofen],serum LTB4 levels,LTB4,effectively reduced
"CC(c1cc2ccccc2s1)N(O)C(N)=O (centres unmarked) [zileuton, 1-[1-(1-benzothiophen-2-yl)ethyl]-1-hydroxyurea]",serum LTB4 levels,LTB4,effectively reduced
same,amelioration of lymphedema (serial tail-volume measurements over 24d),[2],demonstrated therapeutic amelioration of lymphedema

# — patent publication US10500178B2, “LTB4 inhibition to prevent and treat human lymphedema” (The Board of Trustees of the Leland Stanford Junior …, priority 2015, dated 2019)
